In US10253041B2, “7-phenylethylamino-4H-pyrimido[4,5-d][1,3]oxazin-2-one compounds and their use as mutant IDH1 inhibitors” (Eli Lilly and Company, priority 2015, dated 2019):
Like-named read-outs stand apart in the source and are kept apart here.

Assays:
IDH1 Wild-Type = molecular target: T1, IDH1 Wild-Type (Homo sapiens, UniProt O75874); test: Biochemical assay for wild-type IDH1 enzyme (αKG by LC-MS); details: mean ± standard deviation of the mean
T1 construct: His-tag (N); made in house; host or cells: E. coli
Description: (§1) IDH1 and IDH2 enzymes catalyze the conversion of isocitrate to αKG. Wild-type IDH1 (National Center for Biotechnology Information, Accession: NP_001269316.1) and IDH2 (National Center for Biotechnology Information, Accession: EAX02082.1) proteins containing N-terminal His-tag are expressed in E. coli and purified using nickel affinity chromatography. The enzyme assays are carried out in V-bottom 96 well polypropylene plates containing 100 mM Tris-HCl buffer at pH 7.5, 1 mM DTT, 0.005% TRITON™ X-100, 120 mM NaCl. For the IDH1 wild-type assay isocitrate, NADP^+ and MnCl2 are included at the concentrations of 85 μM, 50 μuM and 20 μM respectively. For the IDH2 wild-type assay isocitrate, NADP^+ and MnCl2 are included at the concentrations of 30 μM, 50 μM and 10 μM respectively. Inhibitors dissolved in a DMSO stock solution are diluted in the reaction mixture at a final DMSO concentration of 4%. The enzyme assay is terminated (quenched) by adding ACN (50:50) containing d6-2-ketopentanedioic acid (d6-αKG) as an internal standard for mass spectrometry analysis. Ten microliters of reaction mixture is combined with 100 μL of water, 50 μL of 1 M O-benzylhydroxylamine in pyridine buffer (8.6% pyridine, pH 5), and 50 μL of 1 M N-(3-dimethylaminopropyl)-N-ethylcarbodiimide hydrochloride (EDC) in pyridine buffer. Following derivatization at room temperature for one hour, samples are extracted with 600 μL of EtOAc. Four hundred […] of the upper layer is removed, dried under heated nitrogen and reconstituted with 100 μL of MeOH/water (1:1). Ten μL of derivatized sample is injected onto an LC-MS system consisting of a Shimadzu Prominence 20A HPLC system and a The Thermo Quantum Ultra™ triple quadrupole mass spectrometer. Analytes are separated on a Waters XBridge™ C18 column (2.1×50 mm, […]) with a flow rate of 0.6 mL/minute. Mobile phase A is 0.1% formic acid in water and mobile phase B is MeOH. The αKG signal detected is transformed into analyte concentration using a calibration curve generated using known αKG concentrations. […] IC50 values are obtained from the individual % inhibition values at different compound concentrations using a 4-parameter equation. These calculations are carried out using Activity Base (IDBS) or Screener (Genedata) data analysis programs.

IDH2 Wild-Type = molecular target: T2, IDH2 Wild-Type (Homo sapiens, UniProt P48735); test: Biochemical assay for wild-type IDH2 enzyme (αKG by LC-MS); details: mean ± standard deviation of the mean
T2 construct: His-tag (N); made in house; host or cells: E. coli
T2 sequence (P48735 40-452): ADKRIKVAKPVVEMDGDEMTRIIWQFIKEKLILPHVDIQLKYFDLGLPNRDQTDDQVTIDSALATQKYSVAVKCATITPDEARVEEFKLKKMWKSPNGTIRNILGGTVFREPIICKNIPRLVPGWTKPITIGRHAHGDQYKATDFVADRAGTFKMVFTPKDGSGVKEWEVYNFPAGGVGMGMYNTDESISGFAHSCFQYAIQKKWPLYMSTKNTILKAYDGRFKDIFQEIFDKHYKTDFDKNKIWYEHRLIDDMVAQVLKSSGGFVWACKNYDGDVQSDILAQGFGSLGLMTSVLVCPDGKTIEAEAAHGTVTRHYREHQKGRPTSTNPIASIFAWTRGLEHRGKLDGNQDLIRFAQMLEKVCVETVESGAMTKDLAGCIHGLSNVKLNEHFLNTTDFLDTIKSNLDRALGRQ
Description: as §1

[1] = tested on: IDH1 mutant R132C in fibrosarcoma cell line HT1080; test: HT1080 cell assay (intracellular 2HG and αKG); format: cell-based; details: Homo sapiens; for IC50: 1 hour + 18 hours incubation
Description: To test the cellular inhibition of IDH1 mutant R132C, the fibrosarcoma cell line HT1080 (purchased from ATCC) is used. For testing cell-based inhibition of the R132H mutation, the U87MG glioma cell line (ATCC) was stably transfected with a DNA construct expressing the R132H mutant enzyme.
Fifteen thousand cells are plated in poly-D-lys coated 96 well plates (15,000 cells/well) 18-24 hours prior to treatment with compounds. Four hours prior to compound treatment, cells are glutamine-starved by removing normal media and replacing with glutamine-free media. Following starvation, cells are then treated with different concentrations of test compounds (20 μM to 1 nM) dissolved in glutamine free media containing DMSO at a final concentration of 0.2%. The initial compound incubation is for 1 hour at 37° C./5% CO2. After 1 hour, glutamine is added to a final 2 mM concentration and the treated cells are then incubated for a further 18 hours at 37° C./5% CO2. Following the 18 hour incubation, intracellular 2HG and αKG are analyzed in cell lysates. Lysates are prepared following removal of media and addition of buffer containing 25 mM Tris-HCl pH 7.5, 150 mM NaCl, 1 mM EDTA, 1 mM EGTA/1% Triton-X 100 to the cells. An aliquot of lysate is added to a mix of d6-αKG and d5-3HG as internal standards and the mixture is treated with O-benzylhydroxylamine in the presence of N-(3-dimethylaminopropyl)-N′-ethylcarbodiimide hydrochloride (EDC) and pyridine. Analyte derivatives are then extracted with EtOAc, dried, and then reconstituted with 50% MeOH in H2O. Samples prepared as described are injected into the HPLC to separate 2HG and αKG derivatives (and corresponding internal standards) using a reverse phase chromatography in a C18 column. Analysis of the samples is carried out using a 6460 triple quadrupole mass spectrometer (G6460A Agilent). The 2HG and αKG signals detected are transformed into analyte concentration using the ratio of αKG/d6-αKG and the ratio of 2HG/d5-3HG that is extrapolated within a calibration curve. Percent inhibition for each individual sample is obtained after normalizing calculated 2HG or aKG concentration to maximum and minimum references obtained in the presence and in the absence of glutamine during cell treatment with compounds. IC50 values are obtained from individual % inhibition using a sigmoidal dose-response 4-parameter equation. These calculations are carried out automatically using Activity Base (IDBS) or Screener (Genedata) data analysis programs.

[2] = HT-1080, 19 h, intracellular 2HG, read-out: HT1080 (R132C, 2-hydroxyglutarate) IC50
[3] = HT-1080, intracellular αKG, read-out: HT1080 (R132C, αKG) IC50

T1 sequence (O75874 whole entry): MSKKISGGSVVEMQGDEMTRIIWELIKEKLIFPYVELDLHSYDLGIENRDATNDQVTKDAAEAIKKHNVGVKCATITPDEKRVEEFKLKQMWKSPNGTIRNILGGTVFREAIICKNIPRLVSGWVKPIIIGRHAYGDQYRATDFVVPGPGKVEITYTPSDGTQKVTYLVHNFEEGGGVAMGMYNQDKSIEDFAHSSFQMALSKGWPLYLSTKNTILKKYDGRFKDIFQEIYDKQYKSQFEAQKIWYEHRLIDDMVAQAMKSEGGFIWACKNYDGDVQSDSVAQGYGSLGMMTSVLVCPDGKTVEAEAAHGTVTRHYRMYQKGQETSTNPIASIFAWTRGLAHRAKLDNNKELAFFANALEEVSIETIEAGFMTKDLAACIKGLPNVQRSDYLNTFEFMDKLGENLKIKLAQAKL

IC50 (IDH1 Wild-Type) [µM] | IC50 (IDH2 Wild-Type) [µM] | IC50 [1, 2] [µM] | IC50 [1, 3] [µM] | HT1080 (R132C, 2-hydroxyglutarate) IC50 ([1]; HT-1080, 19 h, read-out: HT1080 (R132C, 2-hydroxyglutarate) IC50 (μM), intracellular 2HG, 1 hour + 18 hours incubation) [µM] | Structure (SMILES)
5.8 ± 6.83 | 7 ± 13.3 | 0.0898 ± 0.0552 | > 20 | – | C=CC(=O)N1CC2(CN(Cc3ccc([C@H](C)Nc4ncc5c(n4)N(CC)C(=O)OC5)cc3)C2)C1 [Example 14, 1-Ethyl-7-[[(1S)-1-[4-[(2-prop-2-enoyl-2,6-diazaspiro[3.3]heptan-6-yl)methyl]phenyl]ethyl]amino]-4H-pyrimido[4,5-d][1,3]oxazin-2-one]
5.01 ± 2.25 | 11.2 ± 6.4 | – | > 20 | 0.0278 ± 0.00623 | C=CC(=O)N1CC2(CN(Cc3ccc([C@H](C)Nc4ncc5c(n4)N(C(C)C)C(=O)OC5)cc3)C2)C1 [Example 15, 1-Isopropyl-7-[[(1S)-1-[4-[(2-prop-2-enoyl-2,6-diazaspiro[3.3]heptan-6-yl)methyl]phenyl]ethyl]amino]-4H-pyrimido[4,5-d][1,3]oxazin-2-one]
8.68 ± 6.03 | 22.7 ± 11.8 | 0.0349 ± 0.0171 | > 20 | – | C=CC(=O)N1CCN(Cc2ccc([C@H](C)Nc3ncc4c(n3)N(CC)C(=O)OC4)cc2F)CC1 [Example 16, 1-Ethyl-7-[[(1S)-1-[3-fluoro-4-[(4-prop-2-enoylpiperazin-1-yl)methyl]phenyl]ethyl]amino]-4H-pyrimido[4,5-d][1,3]oxazin-2-one]
0.421 ± 0.764 | 0.95 ± 1.29 | 0.099 ± 0.0351 | > 20 | – | C=CC(=O)N1CC(COc2ccc([C@H](C)Nc3ncc4c(n3)N(CC)C(=O)OC4)cc2)C1 [Example 17, 1-Ethyl-7-[[(1S)-1-[4-[(1-prop-2-enoylazetidin-3-yl)methoxy]phenyl]ethyl]amino]-4H-pyrimido[4,5-d][1,3]oxazin-2-one]
14.4 ± 0.2 | 28.7 ± 1.5 | – | > 20 | – | C=CC(=O)N1CCN(Cc2ccc([C@H](C)Nc3ncc4c(n3)N(C)C(=O)OC4)cc2)CC1 [Example 19, 1-Methyl-7-[[(1S)-1-[4-[(4-prop-2-enoylpiperazin-1-yl)methyl]phenyl]ethyl]amino]-4H-pyrimido[4,5-d][1,3]oxazin-2-one]
4.32 ± 0.37 | 12.5 ± 0.4 | 0.0955 ± 0.0249 | > 20 | – | C=CC(=O)N1CCN(Cc2ccc([C@H](C)Nc3ncc4c(n3)N(CC(F)F)C(=O)OC4)cc2)CC1 [Example 20, 1-(2,2-difluoroethyl)-7-[[(1S)-1-[4-[(4-prop-2-enoylpiperazin-1-yl)methyl]phenyl]ethyl]amino]-4H-pyrimido[4,5-d][1,3]oxazin-2-one]
6.58 ± 1.01 | 31.1 ± 2.1 | 0.408 | > 20 | – | C=CC(=O)N1CCN(Cc2ccc([C@H](C)Nc3ncc4c(n3)N(CCF)C(=O)OC4)cc2)CC1 [Example 21, 1-(2-fluoroethyl)-7-[[(1S)-1-[4-[(4-prop-2-enoylpiperazin-1-yl)methyl]phenyl]ethyl]amino]-4H-pyrimido[4,5-d][1,3]oxazin-2-one]
0.653 ± 0.042 | 2.15 ± 0.13 | 0.0431 ± 0.044 | > 20 | – | C=CC(=O)N1CC=C(COc2ccc([C@H](C)Nc3ncc4c(n3)N(CC)C(=O)OC4)cc2)C1 [Example 22, 1-ethyl-7-[[(1S)-1-[4-[(1-prop-2-enoyl-2,5-dihydropyrrol-3-yl)methoxy]phenyl]ethyl]amino]-4H-pyrimido[4,5-d][1,3]oxazin-2-one]
